Reference: the kinase profiling compilation of Christmann-Franck et al. (2016)

Assays:
Assay in all cases: radiometric filter-binding kinase assay
PKN2 (human) = PKN2 (human) (UniProt Q16513)
PIM3 (human) = PIM3 (human) (UniProt Q86V86)
NEK6 (human) = NEK6 (human) (UniProt Q9HC98)
MARK1 (human) = MARK1 (human) (UniProt Q9P0L2)
EPHA4 (human) = EPHA4 (human) (UniProt P54764)
IRAK4 (human) = IRAK4 (human) (UniProt Q9NWZ3)
[1] = system: PAK2 (human), Q13177 [T402E]
MAP3K7 TAB1 (human) = MAP3K7 TAB1 (human) (UniProt Q15750+O43318)
NEK2 (human) = NEK2 (human) (UniProt P51955)
Chain of NEK2 (human) (P51955 whole entry, looked up): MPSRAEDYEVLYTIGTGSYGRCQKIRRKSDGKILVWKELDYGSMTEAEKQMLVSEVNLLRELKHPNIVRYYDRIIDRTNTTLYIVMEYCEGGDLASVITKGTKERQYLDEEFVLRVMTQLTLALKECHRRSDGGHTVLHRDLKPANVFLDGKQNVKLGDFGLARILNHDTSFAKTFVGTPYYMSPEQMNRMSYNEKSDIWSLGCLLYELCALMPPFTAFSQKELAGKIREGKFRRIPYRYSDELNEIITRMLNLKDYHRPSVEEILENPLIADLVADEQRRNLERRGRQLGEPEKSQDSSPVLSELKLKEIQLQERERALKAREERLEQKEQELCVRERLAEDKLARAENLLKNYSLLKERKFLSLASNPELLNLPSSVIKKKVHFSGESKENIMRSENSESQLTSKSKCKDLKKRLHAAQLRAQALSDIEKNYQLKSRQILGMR

CLK2 (human) = CLK2 (human) (UniProt P49760)
Chain of CLK2 (human) (P49760 whole entry, looked up): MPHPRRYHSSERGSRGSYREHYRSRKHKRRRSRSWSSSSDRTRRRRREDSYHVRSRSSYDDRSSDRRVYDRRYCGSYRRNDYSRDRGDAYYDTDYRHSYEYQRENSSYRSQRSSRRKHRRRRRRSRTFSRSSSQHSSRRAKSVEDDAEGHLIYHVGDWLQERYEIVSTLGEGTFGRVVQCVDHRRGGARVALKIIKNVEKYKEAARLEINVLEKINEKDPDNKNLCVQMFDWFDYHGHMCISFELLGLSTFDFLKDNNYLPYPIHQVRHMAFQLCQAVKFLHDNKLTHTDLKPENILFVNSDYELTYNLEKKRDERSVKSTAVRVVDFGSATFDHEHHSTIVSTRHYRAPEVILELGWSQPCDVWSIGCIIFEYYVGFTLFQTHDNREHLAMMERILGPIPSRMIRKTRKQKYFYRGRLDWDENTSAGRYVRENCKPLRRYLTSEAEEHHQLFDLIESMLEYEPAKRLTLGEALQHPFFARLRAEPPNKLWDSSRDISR

MAPK14 (human) = MAPK14 (human) (UniProt Q16539)
MAPK3 (human) = MAPK3 (human) (UniProt P27361)
HIPK3 (human) = HIPK3 (human) (UniProt Q9H422)
PIM2 (human) = PIM2 (human) (UniProt Q9P1W9)
CAMKK2 (human) = CAMKK2 (human) (UniProt Q96RR4)
MARK2 (human) = MARK2 (human) (UniProt Q7KZI7)
IKBKE (human) = IKBKE (human) (UniProt Q14164)
Chain of IKBKE (human) (Q14164 whole entry, looked up): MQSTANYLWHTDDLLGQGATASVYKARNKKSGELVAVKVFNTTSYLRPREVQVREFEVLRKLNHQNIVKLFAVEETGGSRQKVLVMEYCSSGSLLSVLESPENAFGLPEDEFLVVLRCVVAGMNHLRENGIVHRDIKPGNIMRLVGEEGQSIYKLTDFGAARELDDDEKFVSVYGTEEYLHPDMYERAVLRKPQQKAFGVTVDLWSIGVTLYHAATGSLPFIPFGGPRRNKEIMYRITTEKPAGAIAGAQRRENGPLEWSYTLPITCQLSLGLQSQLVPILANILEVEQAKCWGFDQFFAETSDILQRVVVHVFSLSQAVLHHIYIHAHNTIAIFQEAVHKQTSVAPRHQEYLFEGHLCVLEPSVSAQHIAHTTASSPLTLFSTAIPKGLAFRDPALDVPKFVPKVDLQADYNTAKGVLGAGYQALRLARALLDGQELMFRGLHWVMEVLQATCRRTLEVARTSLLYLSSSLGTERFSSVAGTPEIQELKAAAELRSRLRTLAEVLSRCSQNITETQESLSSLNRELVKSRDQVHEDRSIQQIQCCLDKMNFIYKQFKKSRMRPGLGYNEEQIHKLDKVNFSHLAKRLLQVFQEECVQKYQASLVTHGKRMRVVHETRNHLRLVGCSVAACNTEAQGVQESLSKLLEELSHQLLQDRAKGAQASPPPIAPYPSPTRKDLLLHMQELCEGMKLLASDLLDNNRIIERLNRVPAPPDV

IGF1R (human) = IGF1R (human) (UniProt P08069); conditions: compound 0.1 µM

Chain of EPHA4 (human) (P54764 whole entry, looked up): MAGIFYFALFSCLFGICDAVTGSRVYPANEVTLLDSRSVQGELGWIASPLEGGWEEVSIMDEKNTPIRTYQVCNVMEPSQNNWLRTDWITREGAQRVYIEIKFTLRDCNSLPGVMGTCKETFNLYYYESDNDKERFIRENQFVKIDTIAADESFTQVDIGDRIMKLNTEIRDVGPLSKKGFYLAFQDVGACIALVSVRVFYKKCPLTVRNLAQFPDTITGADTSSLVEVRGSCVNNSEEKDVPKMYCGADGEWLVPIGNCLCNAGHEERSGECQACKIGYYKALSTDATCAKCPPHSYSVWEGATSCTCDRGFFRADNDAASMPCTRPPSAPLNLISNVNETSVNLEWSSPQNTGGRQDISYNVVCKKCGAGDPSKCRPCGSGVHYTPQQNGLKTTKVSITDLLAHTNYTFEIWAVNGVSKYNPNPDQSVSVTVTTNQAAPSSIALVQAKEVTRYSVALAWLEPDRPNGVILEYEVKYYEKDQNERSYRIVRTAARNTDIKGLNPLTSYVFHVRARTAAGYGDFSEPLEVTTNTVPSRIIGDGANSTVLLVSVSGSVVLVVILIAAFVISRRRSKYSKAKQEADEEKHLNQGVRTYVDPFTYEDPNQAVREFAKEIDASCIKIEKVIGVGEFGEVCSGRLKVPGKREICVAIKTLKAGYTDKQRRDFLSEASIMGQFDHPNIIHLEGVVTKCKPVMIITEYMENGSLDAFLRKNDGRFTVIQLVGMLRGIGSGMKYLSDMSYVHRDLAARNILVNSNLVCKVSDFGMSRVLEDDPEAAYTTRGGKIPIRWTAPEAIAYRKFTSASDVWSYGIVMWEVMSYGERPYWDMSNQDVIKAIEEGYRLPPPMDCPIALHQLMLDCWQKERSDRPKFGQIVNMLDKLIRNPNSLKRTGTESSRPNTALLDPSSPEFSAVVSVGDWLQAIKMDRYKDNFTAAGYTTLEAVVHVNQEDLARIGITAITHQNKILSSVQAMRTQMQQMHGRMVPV
Chain of IRAK4 (human) (Q9NWZ3 whole entry, looked up): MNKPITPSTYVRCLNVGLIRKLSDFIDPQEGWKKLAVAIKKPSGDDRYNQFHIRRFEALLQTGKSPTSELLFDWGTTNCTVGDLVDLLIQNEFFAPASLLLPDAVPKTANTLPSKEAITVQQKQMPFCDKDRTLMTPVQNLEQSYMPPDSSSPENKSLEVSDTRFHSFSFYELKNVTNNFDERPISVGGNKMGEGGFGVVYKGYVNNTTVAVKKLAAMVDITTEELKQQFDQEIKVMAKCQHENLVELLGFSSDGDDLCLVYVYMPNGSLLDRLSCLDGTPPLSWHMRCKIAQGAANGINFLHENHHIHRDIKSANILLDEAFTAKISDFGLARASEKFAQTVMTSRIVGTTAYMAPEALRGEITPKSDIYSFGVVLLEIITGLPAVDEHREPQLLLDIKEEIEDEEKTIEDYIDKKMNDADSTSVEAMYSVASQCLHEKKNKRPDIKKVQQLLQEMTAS
Chain of NEK6 (human) (Q9HC98 whole entry, looked up): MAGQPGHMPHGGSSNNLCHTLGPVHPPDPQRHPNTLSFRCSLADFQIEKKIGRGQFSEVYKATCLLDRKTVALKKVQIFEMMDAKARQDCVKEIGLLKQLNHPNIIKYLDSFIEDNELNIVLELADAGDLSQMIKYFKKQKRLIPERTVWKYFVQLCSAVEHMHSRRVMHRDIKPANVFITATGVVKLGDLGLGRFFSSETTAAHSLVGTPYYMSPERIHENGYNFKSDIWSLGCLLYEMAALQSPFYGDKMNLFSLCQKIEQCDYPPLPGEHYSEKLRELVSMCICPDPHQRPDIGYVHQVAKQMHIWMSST
Chain of PKN2 (human) (Q16513 whole entry, looked up): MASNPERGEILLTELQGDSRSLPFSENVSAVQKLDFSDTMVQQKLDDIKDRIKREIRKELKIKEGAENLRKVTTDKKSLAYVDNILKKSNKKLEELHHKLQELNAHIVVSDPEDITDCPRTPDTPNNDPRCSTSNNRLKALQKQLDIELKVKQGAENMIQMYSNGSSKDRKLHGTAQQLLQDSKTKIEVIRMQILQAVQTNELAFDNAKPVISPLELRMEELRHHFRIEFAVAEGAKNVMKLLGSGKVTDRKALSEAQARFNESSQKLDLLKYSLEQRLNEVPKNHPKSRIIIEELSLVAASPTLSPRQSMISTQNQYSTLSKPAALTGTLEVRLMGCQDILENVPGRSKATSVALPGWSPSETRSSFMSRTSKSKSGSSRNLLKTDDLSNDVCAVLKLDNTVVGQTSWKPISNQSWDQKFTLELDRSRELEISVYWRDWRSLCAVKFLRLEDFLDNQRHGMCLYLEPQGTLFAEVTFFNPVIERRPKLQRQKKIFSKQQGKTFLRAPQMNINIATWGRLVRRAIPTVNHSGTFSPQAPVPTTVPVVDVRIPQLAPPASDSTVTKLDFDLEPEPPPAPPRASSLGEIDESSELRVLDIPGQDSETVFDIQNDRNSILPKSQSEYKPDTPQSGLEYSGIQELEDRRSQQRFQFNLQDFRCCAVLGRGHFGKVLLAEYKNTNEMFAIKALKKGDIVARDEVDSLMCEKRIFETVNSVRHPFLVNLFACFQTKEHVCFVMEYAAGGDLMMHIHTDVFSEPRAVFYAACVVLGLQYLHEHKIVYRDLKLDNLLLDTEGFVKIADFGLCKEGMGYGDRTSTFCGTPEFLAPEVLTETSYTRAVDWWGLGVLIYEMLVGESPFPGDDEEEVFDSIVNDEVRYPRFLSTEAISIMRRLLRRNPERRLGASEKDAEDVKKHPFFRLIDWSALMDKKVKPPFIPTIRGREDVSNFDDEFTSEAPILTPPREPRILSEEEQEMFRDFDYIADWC
Chain of PAK2 (human), Q13177 [T402E] (Q13177 whole entry T402E, looked up): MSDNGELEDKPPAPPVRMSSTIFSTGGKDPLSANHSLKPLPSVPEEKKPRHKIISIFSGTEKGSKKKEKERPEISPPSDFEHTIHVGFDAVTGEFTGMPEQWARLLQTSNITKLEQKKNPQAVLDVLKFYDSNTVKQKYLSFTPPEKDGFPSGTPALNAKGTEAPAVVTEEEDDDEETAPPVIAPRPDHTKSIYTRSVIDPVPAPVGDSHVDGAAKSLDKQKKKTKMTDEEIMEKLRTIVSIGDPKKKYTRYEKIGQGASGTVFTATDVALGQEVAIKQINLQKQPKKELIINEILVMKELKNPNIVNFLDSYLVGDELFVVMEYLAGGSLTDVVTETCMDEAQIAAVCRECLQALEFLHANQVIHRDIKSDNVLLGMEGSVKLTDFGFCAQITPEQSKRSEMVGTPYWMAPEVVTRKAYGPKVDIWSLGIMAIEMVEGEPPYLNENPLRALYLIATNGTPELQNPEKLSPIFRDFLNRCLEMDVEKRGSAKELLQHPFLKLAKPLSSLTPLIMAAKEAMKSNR

Cc1ccc(Sc2cnc(Nc3cccc(Br)n3)s2)cc1C(=O)N1CCN(C(=O)CN)CC1
residual activity (PKN2 (human); compound 0.1 µM): 80% | residual activity (PKN2 (human); compound 1.0 µM): 78% | residual activity (PKN2 (human); compound 10.0 µM): 32% | residual activity (PIM3 (human); compound 0.1 µM): 53% | residual activity (PIM3 (human); compound 1.0 µM): 72% | residual activity (PIM3 (human); compound 10.0 µM): 21% | residual activity (NEK6 (human); compound 0.1 µM): 103% | residual activity (NEK6 (human); compound 1.0 µM): 101% | residual activity (NEK6 (human); compound 10.0 µM): 85% | residual activity (MARK1 (human); compound 0.1 µM): 70% | residual activity (MARK1 (human); compound 1.0 µM): 78% | residual activity (MARK1 (human); compound 10.0 µM): 58% | residual activity (EPHA4 (human); compound 0.1 µM): 22% | residual activity (EPHA4 (human); compound 1.0 µM): 29% | residual activity (EPHA4 (human); compound 10.0 µM): 0% | residual activity (IRAK4 (human); compound 0.1 µM): 5% | residual activity (IRAK4 (human); compound 1.0 µM): 3% | residual activity (IRAK4 (human); compound 10.0 µM): 2% | residual activity ([1]; compound 0.1 µM): 44% | residual activity ([1]; compound 1.0 µM): 44% | residual activity ([1]; compound 10.0 µM): 16% | residual activity (MAP3K7 TAB1 (human); compound 0.1 µM): 107% | residual activity (MAP3K7 TAB1 (human); compound 1.0 µM): 84% | residual activity (MAP3K7 TAB1 (human); compound 10.0 µM): 27% | residual activity (NEK2 (human); compound 0.1 µM): 108% | residual activity (NEK2 (human); compound 1.0 µM): 87% | residual activity (NEK2 (human); compound 10.0 µM): 71% | residual activity (CLK2 (human); compound 0.1 µM): 3% | residual activity (CLK2 (human); compound 1.0 µM): 3% | residual activity (CLK2 (human); compound 10.0 µM): 1% | residual activity (MAPK14 (human); compound 0.1 µM): 101% | residual activity (MAPK14 (human); compound 1.0 µM): 89% | residual activity (MAPK14 (human); compound 10.0 µM): 47% | residual activity (MAPK3 (human); compound 0.1 µM): 103% | residual activity (MAPK3 (human); compound 1.0 µM): 78% | residual activity (MAPK3 (human); compound 10.0 µM): 99% | residual activity (HIPK3 (human); compound 0.1 µM): 30% | residual activity (HIPK3 (human); compound 1.0 µM): 31% | residual activity (HIPK3 (human); compound 10.0 µM): 17% | residual activity (PIM2 (human); compound 0.1 µM): 94% | residual activity (PIM2 (human); compound 1.0 µM): 92% | residual activity (PIM2 (human); compound 10.0 µM): 77% | residual activity (CAMKK2 (human); compound 0.1 µM): 22% | residual activity (CAMKK2 (human); compound 1.0 µM): 19% | residual activity (CAMKK2 (human); compound 10.0 µM): 19% | residual activity (MARK2 (human); compound 0.1 µM): 81% | residual activity (MARK2 (human); compound 1.0 µM): 87% | residual activity (MARK2 (human); compound 10.0 µM): 44% | residual activity (IKBKE (human); compound 0.1 µM): 91% | residual activity (IKBKE (human); compound 1.0 µM): 80% | residual activity (IKBKE (human); compound 10.0 µM): 76% | residual activity (IGF1R (human)): 2%
